Experimental data as given in patent US11311552B2, “Therapies for cancer” (PROXIMAGEN, LLC, priority 2015, dated 2022).

Experiments:
Type in all cases: in vivo
[1] = tested on: human glioblastoma cell line (T98G); experiment: T98G subcutaneous xenograft growth in nude mice (FIG. 2, 3)
Protocol: The solid line represents the control (i.e. untreated). The data in FIG. 2 are presented as % of the tumours progressing in groups of 8-10 mice, where progression is defined as a 20% increase in tumour volume. Tumour volume was determined by measuring the width and depth of the tumour with calipers, and then calculating the volume. […] After 15 days all of the control mice had progressed, whereas none of the mice treated with 6-{4-[1-(Propan-2-yl)piperidin-4-yl]-1,4-diazepan-1-yl}-N-(pyridin-4-yl)pyridine-2-carboxamide had done so. Inhibition of growth of human glioblastoma cell line (T98G) in nude mice is expected to be predictive of a beneficial therapeutic outcome in human cancer patients, including patients suffering from glioblastoma and astrocytoma.
After the subcutaneous tumours had grown to at least 120 mm^3 the mice were randomised into groups and treated with temozolomide (16 mg/kg po daily for 5 days) and 6-{4-[1-(Propan-2-yl)piperidin-4-yl]-1,4-diazepan-1-yl}-N-(pyridin-4-yl)pyridine-2-carboxamide (50 mg/kg, once per day by oral gavage, for 5 days every week, dotted line).
The data are presented in FIG. 3 as % of the tumours progressing in groups of 8-10 mice, where progression is defined as a 20% increase in tumour volume.

[2] = tested on: haematopoietic stem cells (HSCs) and progenitor cells (CFU-GEMM); experiment: mobilisation of haematopoietic progenitor cells in mice (FIG. 1); details: assessed 1 hour later, vs vehicle
Protocol: FIG. 1 is a graph showing the degree of mobilisation of haematopoietic stem cells (HSCs) and progenitor cells (CFU-GEMM) in mice following injection of vehicle, AMD3100 (5 mg/kg) and 6-{4-[1-(Propan-2-yl)piperidin-4-yl]-1,4-diazepan-1-yl}-N-(pyridin-4-yl)pyridine-2-carboxamide (30 mg/kg).
In the experiment represented by FIG. 1, groups of 5 mice were injected with vehicle, AMD3100 (5 mg/kg) or injected sub cutaneously with 6-{4-[1-(Propan-2-yl)piperidin-4-yl]-1,4-diazepan-1-yl}-N-(pyridin-4-yl)pyridine-2-carboxamide (30 mg/kg) and the mobilisation of haematopoietic progenitor cells assessed 1 hour later. The data are expressed for the multipotential GEMM cells as colony forming units per ml of peripheral blood.

[3] = tested on: human glioblastoma cell line (U87MG); experiment: orthotopic (intracranial) U87MG tumours in nude mice: survival and time to progression by luminescence (FIG. 4-10)
Protocol: The experiments represented by FIGS. 4, 5, and 6 had the same control (i.e. vehicle only), and therefore the same control data. For improved clarity, the line representing the control data has been removed from FIGS. 5 and 6, but retained in FIG. 4.
Nude mice were immobilized on a stereotaxic apparatus and anaesthetized. The operative field was prepared with betadine. A small hole was made at 1.0 mm anterior and 2 mm lateral to the exposed bregma. A sterile 5 μL Hamilton syringe with a 26 gauge needle was inserted at a depth of 3.0 mm from the skull surface and withdrawn by 0.5 mm to inject 3×10^3 U87MG cells in a volume of 3 μL. The injection rate was set up to 1 μL/min. After the implantation of the tumour cells, the needle was left in place for 5 min to prevent reflux. The needle was then completely withdrawn from the brain over the course of […] (1.0 mm/min), and the skin was sutured. Just before treatment initiation (5 days after injection), animals were randomized to treatment groups of 10 mice each. A small amount of cells was chosen (3×10^3) to simulate a chemo-radiotherapic treatment made after surgery in which a low number of tumour cells remain in the operatory bed, re-grow and give arise to a recurrence. Treatments were started 5 days after cell injection when no luciferase activity was detectable intracranially, and continued for 35 days. Time to progression (i.e. detection of luminescence) was assessed, and the mice followed for up to 180 days. […] The y axis parameter ‘survival’ is the percentage of mice not yet euthanized. The y axis parameter ‘probability of detection’ is the percentage of mice having a tumour that has progressed to the stage where luminescence is detected.
The following dosage administrations were used: 6-{4-[1-(Propan-2-yl)piperidin-4-yl]-1,4-diazepan-1-yl}-N-(pyridin-4-yl)pyridine-2-carboxamide was dosed at 50 mg/kg po once daily. Bevacizumab was dosed at 4 mg/kg iv every 4 days. Temozolomide was dosed at 32 mg/kg po daily. Sunitinib was dosed at 40 mg/kg po daily. Radiotherapy consisted of 3×2Gy daily.
For this experiment, 5×10^3 U87MG cells were injected using the technique described above. Following injection of the U87MG cells, tumours were detectable in the mice, which were treated for 28 days.

## CC(C)N1CCC(N2CCCN(c3cccc(C(=O)Nc4ccncc4)n3)CC2)CC1 [6-{4-[1-(Propan-2-yl)piperidin-4-yl]-1,4-diazepan-1-yl}-N-(pyridin-4-yl)pyridine-2-carboxamide]
[1]; 50 mg/kg once per day by oral gavage, 5 days every week, all control mice had progressed
  mice with tumour progression (20% increase in tumour volume) after 15 days: none
[1]; alone, 50 mg/kg once per day by oral gavage, 5 days every week
  growth of T98G subcutaneous xenografts compared to control: inhibits the growth
[1]; combination: 50 mg/kg po once per day 5 days every week + temozolomide 16 mg/kg po daily for 5 days
  anti-tumour efficacy on T98G subcutaneous xenografts (% of tumours progressing): synergistic
[2]; 30 mg/kg sub cutaneously
  mobilisation of HSCs from the mouse bone marrow (CFU-GEMM, colony forming units per ml of peripheral blood): does not result in significant mobilisation
[3]; alone, 50 mg/kg po once daily, p<0.001, FIG. 9A/9B
  delay of tumour growth (probability of detection), HR: 3.7
[3]; alone, 50 mg/kg po once daily, to vehicle, FIG. 8A/8B
  delay of growth of the tumour to a size detectable through luminescence, H.R.: 3.5
[3]; combination with Bevacizumab 4 mg/kg iv every 4 days, 50 mg/kg po once daily, vs vehicle, p=0.002, FIG. 4
  survival, HR: 3.4
[3]; combination with Bevacizumab 4 mg/kg iv every 4 days, vs vehicle, p=0.0001, FIG. 8A
  time taken for progression of tumours (detection by luminescence), HR: 9.7
[3]; combination with Sunitinib 40 mg/kg po daily, 50 mg/kg po once daily, vs vehicle, p=0.2, FIG. 7
  survival, HR: 1.6
[3]; combination with Sunitinib 40 mg/kg po daily, vs vehicle, p=0.0001, FIG. 8B
  time taken for progression of tumours (detection by luminescence), HR: 5.3
[3]; combination with Temozolomide 32 mg/kg po daily, 50 mg/kg po once daily, vs Temozolomide alone, p=0.02, FIG. 5
  survival, HR: 2.8
[3]; combination with irradiation and temozolomide, 5x10^3 U87MG cells, tumours detectable, treated for 28 days, p=0.025, FIG. 10
  survival, HR: 2.3
[3]; combination with radiotherapy 3x2Gy daily, 50 mg/kg po once daily, vs radiotherapy alone, p=0.0002, FIG. 6
  survival, HR: 4.0
[3]; irradiation (3x2Gy daily) alone vs combination with irradiation, p=0.0001, FIG. 9A
  delay of tumour growth (probability of detection), HR: 4.6
[3]; temozolomide (32 mg/kg po daily) alone vs combination with temozolomide, p=0.01, FIG. 9B
  delay of tumour growth (probability of detection), HR: 2.9

## c1cc(CN2CCCNCCNCCCNCC2)ccc1CN1CCCNCCNCCCNCC1 [AMD3100, reference compound]
[2]; 5 mg/kg, P<0.05
  mobilisation of HSCs from the mouse bone marrow (CFU-GEMM, colony forming units per ml of peripheral blood): significantly greater than that caused by vehicle
